Data on 16 compounds can be found in PubChem BioAssay (NCI).

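Compound exposure: 48 hours, 5 concentrations, 96-well plates. GI50 marks 50% less growth. The concentration for full growth arrest is given as TGI.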

The term TGI denotes the concentration giving total growth inhibition. The low end stands for more potent growth arrest, the high end for less potent growth arrest. Broadly, the GI50 is the concentration that inhibits growth by half.

What all share (assay): DTP human tumour cell line panel, 48 h
The subject of assay [1] is M14 melanoma.
Assay [2] has as its system MDA-N.
For assay [3], the system named is CCRF-CEM leukemia.
The subject of assay [4] is TK-10 renal.
Assay [5] deals with SK-MEL-5 melanoma.
Assay [6] has as its system OVCAR-5 ovarian.
In assay [7] the test system is NCI-H23 lung.
For assay [8], the system named is MCF7 breast.
For assay [9], the system named is HL-60(TB) leukemia.

On to `CC(=O)N(O)c1ccc(-c2nc3ccccc3s2)cc1`, for which the TGI in [1], in assay [2], in assay [3], in [4], in [5] and in [6] was > 100 µM throughout. For the same compound, in [7], the TGI is > 100 µM.

With `C[C@H](C/C=C/C(C)(C)O)[C@H]1CC[C@@]2(C)[C@@H]3CC[C@H]4C(C)(C)[C@@H](O)CC[C@@]45C[C@@]35CC[C@]12C`, the concentration for total growth inhibition (TGI) in assay [1] was 44.5 µM; in assay [2], > 100 µM; in [4], 27.1 µM; in [6] it was 38.8 µM; in assay [8] it was > 100 µM.

Consider `CNc1ncc(-c2nnnn2-c2ccccc2)c(CN(C)C)n1`, for which the TGI in [1], in [3], in [4], in assay [5], in assay [6] and in assay [8] was > 100 µM each time. Besides, the concentration for total growth inhibition (TGI) in [7] and in assay [9] was > 100 µM in each case.

On to `CC1(C)CC(=O)C2=C(C1)OC1=C(CC(C)(C)CC1=O)C2c1ccccc1[N+](=O)[O-]` (stereo unspecified), for which the TGI in assay [1], in assay [2], in assay [3], in assay [4], in [5] and in assay [6] was > 100 µM throughout. For the same compound, the TGI in assay [7] and in assay [9] was > 100 µM each time.

On to `O=C(NC(=S)NC(=O)c1cc(O)c(O)c(O)c1)c1cc(O)c(O)c(O)c1`, for which the TGI in assay [1] was 98.6 µM; in assay [2] it was 6.06 µM; in assay [3], > 100 µM; in assay [4], 61.3 µM; in assay [5], 57.7 µM; in assay [6], 78.8 µM. The values for the concentration for total growth inhibition (TGI) in [8] and in assay [7] were > 100 µM and 55.4 µM, respectively.

As to `O=C(NNc1nc(-c2ccccc2)cs1)C(F)(F)F`, the TGI in assay [1], in [3], in [5], in [6], in assay [8] and in assay [7] was > 100 µM each time. Also, the total growth inhibition concentration (TGI) in [9] was > 100 µM.

Turning to `Cc1nc2ccccc2c(/C=C/c2ccc(Cl)cc2)c1C(=O)/C=C/c1ccc(Cl)cc1`, the GI50 in assay [3] is 0.605 µM; in assay [5], 1.62 µM; in assay [9], 1.46 µM. Moreover, the TGI in [3] was > 100 µM; in assay [5], 3 µM; in assay [9], 4.37 µM.

Regarding `CC(=O)Oc1ccc(/C=C/C(=O)O[C@@H](C(=O)O)[C@@H](OC(=O)/C=C/c2ccc(OC(C)=O)c(OC(C)=O)c2)C(=O)O)cc1OC(C)=O`, the TGI in assay [1], in assay [2], in assay [3], in [4], in assay [5] and in assay [6] was > 100 µM each time. In addition, the TGI in assay [8] and in assay [7] was > 100 µM each time.

With `C[Si](C)(c1ccccc1)[C@H]1CCCC=C1CCNC1c2ccccc2CCc2ccccc21`, the TGI in assay [1], in [2], in [3], in assay [4], in assay [5] and in [6] was > 100 µM throughout. The TGI in assay [8] and in assay [7] was > 100 µM in each case.

As for `CCc1ccccc1NNc1cc(=O)[nH]c(=O)[nH]1`, the TGI in assay [1] was 35.1 µM; in assay [2], 33.6 µM; in [3], 82.8 µM; in [5], 32.4 µM; in assay [6], 37.3 µM; in assay [8], 39.1 µM. Besides, the TGI in [7] and in assay [9] was > 100 µM each time.

For the compound `Cc1ccccc1NC(=O)Cc1csc2[n+]1C(=O)/C(=C/c1ccc([N+](=O)[O-])cc1)S2`, the TGI in [1] was > 100 µM; in assay [2], > 100 µM; in [4] it was 56.3 µM; in assay [5] it was > 100 µM; in [6], > 100 µM; in [8], > 100 µM. In addition, the results for the TGI in assay [7] and in assay [9] were 84.3 µM and > 100 µM, respectively.

With `CC(C)C1N(C)c2ccc(Cl)cc2[C@H]2c3ccccc3CCN12` (stereo partly specified), the TGI in assay [1] was > 100 µM; in [2], 92 µM; in [3], > 100 µM; in [4] it was > 100 µM; in [6], > 100 µM; in assay [8], > 100 µM. In addition, the TGI in [7] and in assay [9] was > 100 µM throughout.

Take `O=C(OCC(Cl)(Cl)Cl)O[C@@H]1CCCC1(c1ccccc1)c1ccccc1`: the TGI in [1], in [2], in [3], in assay [4], in assay [5] and in [6] was > 100 µM throughout. The TGI in assay [8] and in assay [7] was > 100 µM each time.

As to `COc1cccc(/C=N/[N-]C(N)=O)c1[O-].[Cu+2].[OH3+].c1ccc(-c2ccccn2)nc1`, the TGI is 74 µM in [1]; > 95.6 µM in assay [3]; 42.9 µM in [4]; 31.6 µM in [5]; > 100 µM in [6]; 37.3 µM in [7]. For the same compound, in assay [9], the TGI is > 79.1 µM. Moreover, the GI50 in assay [9] is 40.6 µM.

As for `COc1ccc(C(C2=C(O)COC2=O)c2cc3c(cc2O)OCO3)cc1OC` (stereo unspecified), the TGI in assay [1], in [2], in [3], in assay [4], in assay [5] and in [6] was > 100 µM throughout. In addition, the TGI in assay [8] and in [9] was > 100 µM throughout.

Take `C[N+]1(CCN[N+]2(C)CCCCC2)CCc2ccccc2C1` (stereo unspecified): the TGI in [1], in assay [2], in assay [3], in assay [4], in assay [5] and in [6] was > 100 µM throughout. The TGI in [8] and in assay [7] was > 100 µM throughout.
